Measured values: patent US11026956B2, “Cancer drug and uses” (Health Clinics Limited, priority 2013, dated 2021)

Tests used:
[1] = compared with arteether and artemether; cited from earlier work
MCF-7 cells = assay: Percentage of survival of MCF-7 cells by LDH content; assay type: cell-based; conditions: 72 hours; for survival of MCF-7 cells, therapeutic administered individually: dosed once or multiple times (re-dosing at 24 and 48 h); for percent of survival of MCF-7 cells, administered more than once: re-dosing at 24 and 48 h; for percent of survival of MCF-7 cells, administered more than once / effect on percent of survival of MCF-7 cells, dosed singly: without Artesunate; for effect on percent of survival of MCF-7 cells, dosed singly: single dose
Method: To assess the effect of Artesunate in combination with several other therapeutics, MCF-7 cells were treated with different concentrations of these therapeutic compounds either once or through repeated dosing. The percentage of survival was calculated based on the LDH contents of cells. 1. 100 ul of cells suspension […]) were added to each well (3000 cells/well), with a total of 5 plates were seeded. […] [table] The appropriate volume of 100% Ethanol was added to Artesunate to obtain a concentration of 10 mg/ml. This was further diluted in 100% Ethanol to 1 mg/ml (1:10). 4 ug/ml was obtained by diluting 1 mg/ml (1:250) in complete medium. Further double decreasing dilutions were carried out in complete medium containing 0.4% Ethanol. […] This was further diluted in complete medium to 16 mM (1:6.25). Further double decreasing dilutions were carried out in complete medium. 2 mg of MMC were resuspended in 4 ml of sterile water to obtain a stock at 0.5 mg/ml. A second dilution of MMC was carried out by diluting 0.5 mg/ml in complete medium to 0.1 mg/ml (1:5). 4. Once the treatments were ready, 50 ul/well of Artesunate was added to the plates. […] 5. 50 ul of complete medium at 0.4% Ethanol and 50 ul of just complete medium were added to the corresponding control wells already containing either 100 ul of cells (positive control) or just 100 ul of complete medium (background control) 6. 100 ul of MMC at 100 ug/ml was added to the corresponding wells already containing 100 ul of cells in complete medium as a negative control and finally, plates were placed in the incubator. […] Media was removed from the wells by using a multichannel pipette. Wells were washed with 200 ul/well of PBS previously warmed at 37° C. 100 ul of Titron 1× in PBS previously warmed at 37° C. were added to the wells. Subsequently, the plate was placed at 37° C. in the dark for 45 min. 50 ul from each well was transferred to a non sterile 96-well plate. 50 ul of LDH substrate were added to each well of the non sterile plate already containing 50 ul/well of lysed cells and the plates were then incubating at room temperature in the dark for 30 min. 50 ul of Stop solution was added to each well and then the plate was read at 492 nm. 8. After 48 h of cells treatment, one of the 2 plates that had been re-dosed after 24 h was re-dosed again (treatments were prepared as described above for re-dosing). One of the 2 plates that had been treated just once will remain as it was in the incubator. The remaining 2 plates were used to measure the % of survival by LDH after 48 h of single treatment and after re-dosing at 24 h (LDH assay was performed as described above). Day 3: LDH-72 h and LDH-Re-Dosing at 24 h and at 48 h After 72 h of cells treatment, there were just 2 plates left in the incubator. They were used to measure the of survival by LDH after 72 h of single treatment and after re-dosing at 24 h and 48 h (LDH assay was performed as described above).

[2] = tested on: ovarian cancer cell lines; conditions: cited from earlier work
[3] = tested on: human leukemia HL60 cells; conditions: cited from earlier work
[4] = tested on: human pancreatic cancer BxPC-3 cells; conditions: cited from earlier work
[5] = tested on: human pancreatic cancer AsPC-1 cells; conditions: cited from earlier work
[6] = cited from earlier work
metastatic breast cancer = assay: Case reports: patients with metastatic breast cancer (CAT scan, symptoms, survival); assay type: in vivo, human; conditions: single patient
Source text: A patient comprising a person was diagnosed by their physician with advanced metastatic breast cancer. The metastatic breast cancer consisted of tumors, including several found in both lungs. The physician prescribed a standard set of cancer therapeutics in an attempt to reduce or maintain the tumors. […] The physician placed the patient on a paliative care regime and provided the patient with several doses of the aromatase inhibitor, letrazole. […] The patient was next administered a treatment consisting of artemether at a dose of 40 mg OD, presented in a lipid filled capsule comprising tributyrin and G43.
A patient comprising a person was diagnosed by their physician with extensive metastaic breast cancer. The patient presented with tumors in brain liver and lungs. The patient also presented with symptoms that included shortness of breath and a persistent cough. The patient informed the physician that they would not take part in a standard chemotherapy treatment protocol. The physician informed the patient that they would only live for about three months survival. The patient was instead administered artemether at a dose of 40 mg OD, presented as a lipid filled capsule comprising tributyrin and G43. As a result of the treatment, the symptoms the patient suffered from, including, shortness of breath and a persistent cough diminished over the weeks following treatment with arthemether. […]

C[C@H]1[C@@H](OCc2ccc(C(=O)O)cc2)O[C@@H]2O[C@@]3(C)CC[C@H]4[C@H](C)CC[C@@H]1[C@@]24OO3 [Artelinic acid]
rate of neurotoxicity [1]: lower rate of neurotoxicity than the related artemisin derivatives arteether and artemether

C[C@H]1[C@H](OC(=O)CCC(=O)O)O[C@@H]2O[C@@]3(C)CC[C@H]4[C@H](C)CC[C@@H]1[C@@]24OO3 [Artesunate]
survival of MCF-7 cells, therapeutic administered individually (MCF-7 cells): decreased the survival of MCF-7 cells

O=c1c(-c2ccc(O)cc2)coc2cc(O)ccc12 [Daidzein]
percent of survival of MCF-7 cells, administered more than once (MCF-7 cells): decreasing marginally | effect on percent of survival of MCF-7 cells, dosed singly (MCF-7 cells): only minimal effect

Oc1ccc([C@H]2COc3cc(O)ccc3C2)cc1 [Equol]
percent of survival of MCF-7 cells, administered more than once (MCF-7 cells): decreasing marginally | effect on percent of survival of MCF-7 cells, dosed singly (MCF-7 cells): only minimal effect

Oc1ccc(C=Cc2cc(O)cc(O)c2)cc1 [Resveratrol]
percent of survival of MCF-7 cells, administered more than once (MCF-7 cells): decreasing marginally | effect on percent of survival of MCF-7 cells, dosed singly (MCF-7 cells): only minimal effect

CCCC(=O)[O-].[Na+] [Sodium Butyrate]
survival of MCF-7 cells, therapeutic administered individually (MCF-7 cells): decreased the survival of MCF-7 cells

CO[C@H]1O[C@@H]2O[C@@]3(C)CC[C@H]4[C@H](C)CC[C@@H]([C@H]1C)[C@@]24OO3 [artemether, (+)-(3-alpha,5a-beta,6-beta,8a-beta, 9-alpha,12-beta,12aR)-decahydro-10-methoxy-3,6,9-trimethyl-3,12-epoxy-12H-pyrano(4,3-j)-1,2-benzodioxepin]
cytotoxicity (apoptosis, G2 cell cycle arrest) [2]: dose- and time-dependent cytotoxicity | cytotoxicity (apoptosis, G2 cell cycle arrest) [3]: dose- and time-dependent cytotoxicity | cytotoxicity (apoptosis, G2 cell cycle arrest) [4]: dose- and time-dependent cytotoxicity | cytotoxicity (apoptosis, G2 cell cycle arrest) [5]: dose- and time-dependent cytotoxicity

C[C@@H]1CC[C@H]2[C@@H](C)C(=O)O[C@@H]3O[C@@]4(C)CC[C@@H]1[C@]32OO4 [artemisinin]
bioavailability [6]: poor bioavailability

N#Cc1ccc(C(c2ccc(C#N)cc2)n2cncn2)cc1 [letrazole]
tumor progression (CAT scan) (metastatic breast cancer; after several doses of the aromatase inhibitor on palliative care): progressing | growth of one tumor in a lung (metastatic breast cancer; in three months, after several doses of the aromatase inhibitor): 50%
